Source: patent publication US20250339409A1, “USES OF PAN BET INHIBITORS” (VYNE THERAPEUTICS INC., priority 2021, published 2025)
Several values for one entry are separate records, joined by “and”; a condition that tells them apart may be missing. Equal values may be shown once.

What was measured:
hydroxyproline = experiment: Bleomycin mice: hydroxyproline content of lung tissue (colorimetric assay); format: in vivo, C57BL/6 male mice; conditions: for Mean Diff., Hydroxyproline Level of Lung, Group 2 Bleo/Veh vs. BETi1 group: One Way ANOVA, Dunnett's; for Mean Diff., Hydroxyproline Level of Lung, Group 2 Bleo/Veh vs. BETi1 group / Mean 2 (group mean), Hydroxyproline Level of Lung: in µg/mg
Method: The left lobe of lung tissue is collected, and snap frozen for hydroxyproline levels analysis. Hydroxyproline (4-hydroxyproline, Hyp) is a common nonproteinogenic amino acid. Hydroxyproline in tissue hydrolysates is an indirect measure of the amount of collagen present. Hydroxyproline content of lung tissue is measured by colorimetric assay.

[1] = system: IL-1β, IL-6, IL-8, IL-17, IL-18, IL-23, IL-36 and TNF-α; experiment: Serum pro-inflammatory cytokine assays (Luminex, ELISA) in the imiquimod model; format: in vivo, female Balb/c mice; conditions: imiquimod-induced mice
Method: Immediately after the TEWL measurements on D14, mice are maintained under gas anesthesia and blood is taken from each mouse by intracardiac puncture. Blood samples are placed at +4° C. for 20 to 30 minutes before being centrifuged at 3000 rpm and +4° C. for 20 minutes. Serum is collected, frozen at −20° C. and then stored at −80° C. awaiting serum biomarkers assays (cytokines).
Assays of the 8 pro-inflammatory cytokines IL-1β, IL-6, IL-8, IL-17, IL-18, IL-23, IL-36 and TNF-α associated with psoriasis and other inflammatory diseases is performed on the isolated and frozen serum samples from blood collected at the end of the experiment on mice of the 7 experimental groups 1 to 7.
The Luminex® technique using magnetic beads technology and ProcartaPlex® immunoassay kit from the Invitrogen division of Thermofisher Scientific is used to perform the assays of the 7 multiplexed cytokines IL-1β, IL-6, IL-8, IL-17, IL-18, IL-23, and TNF-α. Analyte-specific antibodies for the 7 cytokines is pre-coated onto color-coded magnetic microparticles. Microparticles, standards and serum samples (non-diluted as recommended in the instruction manual) is pipetted into wells and the immobilized antibodies bind the analytes of interest. After washing away any unbound substances, a biotinylated antibody cocktail specific to the analytes of interest is added to each well. Following a wash to remove any unbound biotinylated antibody, streptavidin-phycoerythrin conjugate (Streptavidin-PE), which binds to the biotinylated antibody, is added to each well. A final wash removes unbound Streptavidin-PE and the microparticles is resuspended in buffer and read using a Bio-Rad Bio-Plex 200 Analyzer. A magnet in the analyzer captures and holds the superparamagnetic microparticles in a monolayer. Two spectrally distinct Light Emitting Diodes (LED) illuminate the microparticles. One LED identifies the analyte detected and the second LED determines the magnitude of the PE-derived signal, which is in direct proportion to the amount of the analyte bound. Each well is imaged with a Charged Coupled Device (CCD) camera. A representative standard curve from the 7 cytokines is diluted in a serial fourfold steps in specific standard buffer. Each standard, control and serum sample is analyzed in duplicate.
Quantitative sandwich Enzyme-Linked ImmunoSorbent Assay (ELISA) using mouse IL-36 immunoassay kit from the Invitrogen division of Thermofisher Scientific is used to perform the assay. A purified anti-mouse polyclonal antibody against the specific antigen IL-36 pre-coated onto a microplate is used. Standard, control, and serum samples, as recommended in the instruction manual, are pipetted into the wells and any mouse specific antigen present is bound by the immobilized antibody. After washing away any unbound substances, a biotin-conjugated anti-mouse IL-36 antibody is incubated in each well. Then, after washing, streptavidin-Horseradish Peroxidase (HRP) complex is added to the wells, allowing non-covalent biological interaction with biotin. Following several washes to remove any unbound complex, a TetraMethylBenzidine (TMB) substrate solution is added to the wells. The enzyme reaction yields a blue product that turns yellow when the stop solution is added. The intensity of the colour is measured at 450 nm and 570 nm using a microplate reader. The values of 570 nm are subtracted from those of 450 nm and data is in proportion to the amount of […] bound in the initial step. The serum samples values are then read off the standard curves. A representative standard curve from IL-36 is diluted in a serial two folds step in assay buffer. Each standard, control and serum sample is analyzed in duplicate.

[2] = Solubility of BETi1 in water (HPLC) and in solvents (visual observation); format: physicochemical; conditions: sample of 0.04 mg/g (0.004%) in NaCMC/saline

## Cn1cc(-c2cccc(O)c2Oc2ccccc2)c2cc[nH]c2c1=O [BETi1]
hydroxyproline; 3 mg/mL (group 5)
  reduction in hydroxyproline levels: statistically significant compared to treatment with vehicle
hydroxyproline; 0.06, 0.6 and 3 mg/mL, vs bleomycin and vehicle
  hydroxyproline levels: demonstrated a decrease in hydroxyproline levels
hydroxyproline; Group 3 Bleo/BETi1 0.06 mg/mL
  Hydroxyproline Level of Lung, Mean: 0.2248 μg/mg tissue
  Hydroxyproline Level of Lung, individual animals: 0.1154 μg/mg tissue and 0.2842 μg/mg tissue and 0.3149 μg/mg tissue and 0.2968 μg/mg tissue and 0.3372 μg/mg tissue and 0.1322 μg/mg tissue and 0.1196 μg/mg tissue and 0.1977 μg/mg tissue
  Mean Diff., Hydroxyproline Level of Lung, Group 2 Bleo/Veh vs. BETi1 group: 0.08927
  Mean 2 (group mean), Hydroxyproline Level of Lung: 0.2248
hydroxyproline; Group 4 Bleo/BETi1 0.6 mg/mL
  Hydroxyproline Level of Lung, Mean: 0.2535 μg/mg tissue
  Hydroxyproline Level of Lung, individual animals: 0.1377 μg/mg tissue and 0.3400 μg/mg tissue and 0.2954 μg/mg tissue and 0.1503 μg/mg tissue and 0.2745 μg/mg tissue and 0.3191 μg/mg tissue and 0.2242 μg/mg tissue and 0.2703 μg/mg tissue and 0.1029 μg/mg tissue and 0.2298 μg/mg tissue and 0.3121 μg/mg tissue and 0.2982 μg/mg tissue and 0.3414 μg/mg tissue
  Mean Diff., Hydroxyproline Level of Lung, Group 2 Bleo/Veh vs. BETi1 group: 0.0605
  Mean 2 (group mean), Hydroxyproline Level of Lung: 0.2535
hydroxyproline; Group 5 Bleo/BETi1 3 mg/mL
  Hydroxyproline Level of Lung, Mean: 0.2003 μg/mg tissue
  Hydroxyproline Level of Lung, individual animals: 0.1935 μg/mg tissue and 0.0596 μg/mg tissue and 0.2200 μg/mg tissue and 0.2800 μg/mg tissue and 0.2731 μg/mg tissue and 0.1308 μg/mg tissue and 0.2466 μg/mg tissue and 0.1112 μg/mg tissue and 0.3107 μg/mg tissue and 0.2382 μg/mg tissue and 0.3024 μg/mg tissue and 0.1349 μg/mg tissue and 0.1029 μg/mg tissue
  Mean Diff., Hydroxyproline Level of Lung, Group 2 Bleo/Veh vs. BETi1 group: 0.1137
  Mean 2 (group mean), Hydroxyproline Level of Lung: 0.2003
[1]; D14, listed as BETi1 0.001%
  Inflammatory Biomarkers, Mean score values, IL-1β: 49.00 pg/mL
  Inflammatory Biomarkers, Mean score values, IL-6: 123.25 pg/mL
  Inflammatory Biomarkers, Mean score values, IL-8: 41.82 pg/mL
  Inflammatory Biomarkers, Mean score values, IL-17: 74.77 pg/mL
  Inflammatory Biomarkers, Mean score values, IL-18: 241.77 pg/mL
  Inflammatory Biomarkers, Mean score values, IL-23: 51.02 pg/mL
  Inflammatory Biomarkers, Mean score values, IL-36: 65.63 pg/mL
  Inflammatory Biomarkers, Mean score values, TNF-α: 36.20 pg/mL
[1]; D14, listed as BETi1 0.1%
  Inflammatory Biomarkers, Mean score values, IL-1β: 24.31 pg/mL
  Inflammatory Biomarkers, Mean score values, IL-6: 56.29 pg/mL
  Inflammatory Biomarkers, Mean score values, IL-8: 21.40 pg/mL
  Inflammatory Biomarkers, Mean score values, IL-17: 25.08 pg/mL
  Inflammatory Biomarkers, Mean score values, IL-18: 138.90 pg/mL
  Inflammatory Biomarkers, Mean score values, IL-23: 20.66 pg/mL
  Inflammatory Biomarkers, Mean score values, IL-36: 26.91 pg/mL
  Inflammatory Biomarkers, Mean score values, TNF-α: 18.27 pg/mL
[1]; D14, listed as BETi1 1.0%
  Inflammatory Biomarkers, Mean score values, IL-1β: 39.46 pg/mL
  Inflammatory Biomarkers, Mean score values, IL-6: 96.09 pg/mL
  Inflammatory Biomarkers, Mean score values, IL-8: 23.50 pg/mL
  Inflammatory Biomarkers, Mean score values, IL-17: 54.13 pg/mL
  Inflammatory Biomarkers, Mean score values, IL-18: 202.85 pg/mL
  Inflammatory Biomarkers, Mean score values, IL-23: 33.19 pg/mL
  Inflammatory Biomarkers, Mean score values, IL-36: 52.58 pg/mL
  Inflammatory Biomarkers, Mean score values, TNF-α: 25.05 pg/mL
[1]; D14, listed as BETi10.01%
  Inflammatory Biomarkers, Mean score values, IL-1β: 32.62 pg/mL
  Inflammatory Biomarkers, Mean score values, IL-6: 74.31 pg/mL
  Inflammatory Biomarkers, Mean score values, IL-8: 30.82 pg/mL
  Inflammatory Biomarkers, Mean score values, IL-17: 33.44 pg/mL
  Inflammatory Biomarkers, Mean score values, IL-18: 146.86 pg/mL
  Inflammatory Biomarkers, Mean score values, IL-23: 30.04 pg/mL
  Inflammatory Biomarkers, Mean score values, IL-36: 30.38 pg/mL
  Inflammatory Biomarkers, Mean score values, TNF-α: 22.16 pg/mL
[2]
  fraction of API in undissolved form: approximately 90%
